pIC50: −log10 of the molar value.
Legend:
[1] = Cytotoxicity against African green monkey Vero cells assessed as cytopathic effect after 48 hrs; format: cell-based; conditions: chlorocebus sabaeus, read-out: TC50
[2] = tested on: Coxsackievirus B3; assay: Antiviral activity against Coxsackievirus B3 Nancy infected in African green monkey Vero cells assessed as inhibition of virus-induced cytopathic effect; format: functional; conditions: Enterovirus B
[3] = Selectivity index, ratio of TC50 for African green monkey Vero cells to IC50 for Coxsackievirus B3 Nancy infected in African green monkey Vero cells; format: toxicity; conditions: read-out: Selectivity Index
[4] = tested on: Coxsackievirus B1; assay: Antiviral activity against Coxsackievirus B1 Conn 5 infected in African green monkey Vero cells assessed as inhibition of virus-induced cytopathic effect; format: functional; conditions: Enterovirus B, Conn 5, Vero
[5] = Antiviral activity against Coxsackievirus B2 Ohio-1 infected in African green monkey Vero cells assessed as inhibition of virus-induced cytopathic effect; format: functional, Coxsackievirus B2 (strain Ohio-1); conditions: Enterovirus B
[6] = tested on: Coxsackievirus B4; assay: Antiviral activity against Coxsackievirus B4 JVB infected in African green monkey Vero cells assessed as inhibition of virus-induced cytopathic effect; format: functional; conditions: Enterovirus B
[7] = tested on: Coxsackievirus B5; assay: Antiviral activity against Coxsackievirus B5 Faulkner infected in African green monkey Vero cells assessed as inhibition of virus-induced cytopathic effect; format: functional; conditions: Enterovirus B
[8] = Antiviral activity against Coxsackievirus B6 Schmitt infected in African green monkey Vero cells assessed as inhibition of virus-induced cytopathic effect; format: functional, Coxsackievirus B6 (strain Schmitt); conditions: Enterovirus B
[9] = Acute toxicity in po dosed Kunming mouse measured for 7 days; format: organism-based; conditions: in vivo
[10] = Selectivity index, ratio of TC50 for African green monkey Vero cells to IC50 for Coxsackievirus B1 Conn 5 infected in African green monkey Vero cells; format: toxicity; conditions: read-out: Selectivity Index
[11] = Selectivity index, ratio of TC50 for African green monkey Vero cells to IC50 for Coxsackievirus B2 Ohio-1 infected in African green monkey Vero cells; format: toxicity; conditions: read-out: Selectivity Index
[12] = Selectivity index, ratio of TC50 for African green monkey Vero cells to IC50 for Coxsackievirus B4 JVB infected in African green monkey Vero cells; format: toxicity; conditions: read-out: Selectivity Index
[13] = Selectivity index, ratio of TC50 for African green monkey Vero cells to IC50 for Coxsackievirus B5 Faulkner infected in African green monkey Vero cells; format: toxicity; conditions: read-out: Selectivity Index
[14] = Selectivity index, ratio of TC50 for African green monkey Vero cells to IC50 for Coxsackievirus B6 Schmitt infected in African green monkey Vero cells; format: toxicity; conditions: read-out: Selectivity Index
[15] = Tmax in Sprague-Dawley rat at 25 mg/kg, po; format: ADME, organism-based; conditions: in vivo
[16] = Cmax in Sprague-Dawley rat at 25 mg/kg, po; format: ADME, organism-based; parameters: dose 25 mg/kg, route oral; conditions: in vivo
[17] = AUC (0 to t) in Sprague-Dawley rat at 25 mg/kg, po; format: ADME, organism-based; conditions: in vivo
[18] = AUC (0 to infinity) in Sprague-Dawley rat at 25 mg/kg, po; format: ADME, organism-based; parameters: dose 25 mg/kg, route oral, time infinity; conditions: in vivo
[19] = MRT in Sprague-Dawley rat at 25 mg/kg, po; format: ADME, organism-based; conditions: in vivo
[20] = Half life in Sprague-Dawley rat at 25 mg/kg, po; format: ADME, organism-based; conditions: in vivo

| SMILES | CC50 at 48 h [1] | pIC50 [2] | selectivity ratio [3] | other results |
| --- | --- | --- | --- | --- |
| CCCC[C@@H]1[C@H]2CCCN3CCC[C@@H](CN1S(=O)(=O)c1ccccc1C(=O)OC)[C@@H]23 | 320 µM | 5.14 | 44.1 | – |
| O=S(=O)(c1ccc(C(F)(F)F)cc1)N1C[C@@H]2CCCN3CCC[C@@H]([C@H]23)[C@H]1CCF | 358 µM | 4.89 | 27.6 | – |
| CCCC[C@@H]1[C@H]2CCCN3CCC[C@@H](CN1S(=O)(=O)c1ccc(N)cc1)[C@@H]23 | 82.9 µM | 4.64 | 3.6 | – |
| CCCC[C@@H]1[C@H]2CCCN3CCC[C@@H](CN1S(=O)(=O)c1cccc(C#N)c1)[C@@H]23 | 96.2 µM | 5.94 | 84.3 | – |
| CC(=O)c1ccc(S(=O)(=O)N2C[C@@H]3CCCN4CCC[C@@H]([C@H]34)[C@H]2CCCl)cc1 | 251 µM | 4.91 | 20.5 | – |
| NC(=O)c1ncn([C@@H]2O[C@H](CO)[C@@H](O)[C@H]2O)n1 [RIBAVIRIN] | 6360 to 8200 µM | 3.16 to 3.42 | 11.8 to 16.8 | pIC50 [4]: 2.62; pIC50 [5]: < 3.30; pIC50 [6]: < 3.30; pIC50 [7]: 2.48; pIC50 [8]: 2.68 |
| CCCC[C@@H]1[C@H]2CCCN3CCC[C@@H](CN1S(=O)(=O)c1ccccc1C#N)[C@@H]23 | 116 to 200 µM | 5.98 | 111 | LD50 at 168 h [9]: > 500 mg/kg; pIC50 [4]: 5.82; pIC50 [5]: 5.78; pIC50 [6]: 5.29; pIC50 [7]: 6.16; pIC50 [8]: 5.69; selectivity ratio [10]: > 132; selectivity ratio [11]: > 121; selectivity ratio [12]: > 38.9; selectivity ratio [13]: > 290; selectivity ratio [14]: 75.3; Tmax [15]: 1.33 h; Cmax [16]: 3.07 µM; AUC(0-t) [17]: 30.9 µM·h; AUC(0-inf) [18]: 31.8 µM·h; MRT [19]: 4.05 h; half-life [20]: 2.48 h |
| N#Cc1cccc(S(=O)(=O)N2C[C@@H]3CCCN4CCC[C@@H]([C@H]34)[C@H]2CCCCF)c1 | 276 µM | 5.35 | 61.4 | LD50 at 168 h [9]: 654 mg/kg |
| O=S(=O)(c1ccccc1/C=N/O)N1C[C@@H]2CCCN3CCC[C@@H]([C@H]23)[C@H]1CCO | > 491 µM | 6.06 | > 565 | LD50 at 168 h [9]: < 500 mg/kg |
| NC(=O)c1cccc(S(=O)(=O)N2C[C@@H]3CCCN4CCC[C@@H]([C@H]34)[C@H]2CCO)c1 | > 491 µM | 5.03 | > 53.1 | – |
| NC(=O)c1ccc(S(=O)(=O)N2C[C@@H]3CCCN4CCC[C@@H]([C@H]34)[C@H]2CCO)cc1 | > 491 µM | 4.80 | > 30.7 | – |
| N#Cc1ccccc1S(=O)(=O)N1C[C@@H]2CCCN3CCC[C@@H]([C@H]23)[C@H]1CCCCF | 230 µM | 4.75 | 13 | LD50 at 168 h [9]: 560 mg/kg |
| N#Cc1ccccc1S(=O)(=O)N1C[C@@H]2CCCN3CCC[C@@H]([C@H]23)[C@H]1CCCl | > 452 µM | 5.73 | > 244 | LD50 at 168 h [9]: 348 mg/kg |
| N#Cc1ccc(S(=O)(=O)N2C[C@@H]3CCCN4CCC[C@@H]([C@H]34)[C@H]2CCCCF)cc1 | 276 µM | 5.12 | 36.7 | LD50 at 168 h [9]: 353 mg/kg |
| O=S(=O)(c1ccccc1C(F)(F)F)N1C[C@@H]2CCCN3CCC[C@@H]([C@H]23)[C@H]1CCCCF | 229 µM | 4.77 | 13.6 | – |
| CCCC[C@@H]1[C@H]2CCCN3CCC[C@@H](CN1S(=O)(=O)c1ccc(OC)cc1)[C@@H]23 | 96.2 µM | 5.24 | 16.6 | – |
| N#Cc1cccc(S(=O)(=O)N2C[C@@H]3CCCN4CCC[C@@H]([C@H]34)[C@H]2CCF)c1 | > 512 µM | 4.13 | > 6.84 | – |
| C1CCN2C[C@@H]3CCCN4CCC[C@@H]([C@H]34)[C@H]2C1 | 652 µM | 4.24 | 11.4 | – |
| N#Cc1ccccc1S(=O)(=O)N1C[C@@H]2CCCN3CCC[C@@H]([C@H]23)[C@H]1CCCCCl | 204 µM | 5.40 | 51.2 | LD50 at 168 h [9]: 348 mg/kg |
| CCCC[C@@H]1[C@H]2CCCN3CCC[C@@H](CN1S(=O)(=O)c1ccc(NC(C)=O)cc1)[C@@H]23 | 96.2 µM | 5.61 | 38.9 | – |
| O=S(=O)(c1cccc(C(F)(F)F)c1)N1C[C@@H]2CCCN3CCC[C@@H]([C@H]23)[C@H]1CCCCF | 100 µM | 6.09 | 122 | – |
| CCCC[C@@H]1[C@H]2CCCN3CCC[C@@H](CN1S(=O)(=O)c1ccccc1[N+](=O)[O-])[C@@H]23 | 228 µM | 5.61 | 92.5 | – |
| O=S(=O)(c1ccc(C(F)(F)F)cc1)N1C[C@@H]2CCCN3CCC[C@@H]([C@H]23)[C@H]1CCCCF | 144 µM | 5.92 | 121 | – |
| N#Cc1cccc(S(=O)(=O)N2C[C@@H]3CCCN4CCC[C@@H]([C@H]34)[C@H]2CCCl)c1 | 313 µM | 5.49 | 97 | LD50 at 168 h [9]: 348 mg/kg |
| CCCC[C@@H]1[C@H]2CCCN3CCC[C@@H](CN1S(=O)(=O)c1cccc(C(=O)OC)c1)[C@@H]23 | 73.7 µM | 5.84 | 50.9 | – |
| N#Cc1cccc(S(=O)(=O)N2C[C@@H]3CCCN4CCC[C@@H]([C@H]34)[C@H]2CCCCCl)c1 | 204 µM | 5.08 | 24.3 | – |
| CCCC[C@@H]1[C@H]2CCCN3CCC[C@@H](CN1S(=O)(=O)c1ccc(C(=O)OC)cc1)[C@@H]23 | 367 µM | 4.85 | 25.1 | – |
